# Laboratory results reported in patent publication US7825264B2, “Substituted heterocycles, their use as medicament, and pharmaceutical preparations comprising them” (sanofi-aventis, priority 2005, dated 2010).
# Target: Human TASK-1 channels (UniProt O35111)
# Assay: Activity on the TASK-1 channel: two-microelectrode voltage clamp on Xenopus oocytes expressing TASK-1
# Type: cell-based
# Conditions: TASK-1 expressed in Xenopus oocytes, room temperature, Hill equation; read-out: mTask-1 IC-50
row,SMILES,IC50 [µM]
1,"N#Cc1ccc(O[C@H](c2ccc(F)c(F)c2)[C@H](c2ccc(F)cc2)N2CCCC2=O)cc1 (racemic) [Example 4, 4-[(1R′,2S′)-1-(3,4-Difluorophenyl)-2-(4-fluorophenyl)-2-(2-oxopyrrolidin-1-yl)ethoxy]benzonitrile]",2.3
2,"N#Cc1ccc(O[C@@H](c2cccc3cccnc23)[C@@H](c2ccc(F)cc2)N2CCCC2=O)cc1 (racemic) [Example 9, 4-[(1S′,2R′)-2-(4-Fluorophenyl)-2-(2-oxopyrrolidin-1-yl)-1-quinolin-8-ylethoxy]benzonitrile]",0.4

# Target: T1, Human Kv1.5 channels (Homo sapiens, UniProt P22460)
# T1 construct: expressed in transfected cells; host or cells: Xenopus laevis oocytes injected with RNA synthesized in vitro
# T1 sequence (P22460 whole entry): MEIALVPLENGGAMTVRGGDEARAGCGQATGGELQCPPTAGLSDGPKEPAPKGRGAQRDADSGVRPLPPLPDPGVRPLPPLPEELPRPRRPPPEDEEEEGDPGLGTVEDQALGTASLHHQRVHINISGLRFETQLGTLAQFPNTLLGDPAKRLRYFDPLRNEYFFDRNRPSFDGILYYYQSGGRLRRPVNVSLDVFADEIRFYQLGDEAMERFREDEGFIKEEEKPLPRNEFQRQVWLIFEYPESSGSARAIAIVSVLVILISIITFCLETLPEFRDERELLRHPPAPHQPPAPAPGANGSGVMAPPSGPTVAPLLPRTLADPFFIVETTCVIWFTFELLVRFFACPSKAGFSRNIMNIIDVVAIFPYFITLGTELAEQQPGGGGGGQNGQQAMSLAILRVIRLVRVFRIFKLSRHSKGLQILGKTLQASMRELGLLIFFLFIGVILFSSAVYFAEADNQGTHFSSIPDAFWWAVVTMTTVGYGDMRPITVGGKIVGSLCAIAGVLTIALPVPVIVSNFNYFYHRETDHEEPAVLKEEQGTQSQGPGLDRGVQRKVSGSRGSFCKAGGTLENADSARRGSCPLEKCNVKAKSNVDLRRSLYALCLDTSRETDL
# Assay: Activity on the Kv1.5 channel: two-microelectrode voltage clamp on Xenopus oocytes expressing Kv1.5
# Type: cell-based
# Conditions: human Kv1.5 expressed in Xenopus oocytes, room temperature, Hill equation; read-out: Kv1.5 IC-50
# Protocol: Determination of the Activity on the Kv1.5 Channel
# Human Kv1.5 channels were expressed in xenopus oocytes. For this purpose, firstly oocytes were isolated from Xenopus laevis and defolliculated. Kv1.5-encoding RNA synthesized in vitro was then injected into these oocytes. After Kv1.5 protein expression for 1-7 days, Kv1.5 currents were measured on the oocytes using the two-microelectrode voltage clamp technique. The Kv1.5 channels were in this case usually activated with voltage jumps lasting 500 ms to 0 mV and 40 mV. A solution of the following composition flowed through the bath: NaCl 96 mM, KCl 2 mM, CaCl2 1.8 mM, MgCl2 1 mM, HEPES 5 mM (titrated to pH 7.4 with NaOH). These experiments were carried out at room temperature. The following were employed for data acquisition and analysis: Geneclamp amplifier (Axon Instruments, Foster City, USA) and MacLab D/A converter and software (ADInstruments, Castle Hill, Australia). The substances of the invention were tested by adding them in various concentrations to the bath solution. The effects of the substances were calculated as percent inhibition of the Kv1.5 control current which was obtained when no substance was added to the solution. The data were then extrapolated using the Hill equation in order to determine the inhibitory concentrations IC50 for the respective substances.
row,SMILES,IC50 [µM]
1,"N#Cc1ccc(O[C@H](c2ccc(F)c(F)c2)[C@H](c2ccc(F)cc2)N2CCCC2=O)cc1 (racemic) [Example 4, 4-[(1R′,2S′)-1-(3,4-Difluorophenyl)-2-(4-fluorophenyl)-2-(2-oxopyrrolidin-1-yl)ethoxy]benzonitrile]",3.9
2,"N#Cc1ccc(O[C@@H](c2cccc3cccnc23)[C@@H](c2ccc(F)cc2)N2CCCC2=O)cc1 (racemic) [Example 9, 4-[(1S′,2R′)-2-(4-Fluorophenyl)-2-(2-oxopyrrolidin-1-yl)-1-quinolin-8-ylethoxy]benzonitrile]",4.2
3,N#Cc1ccc(CO[C@H](c2ccc(F)c(F)c2)[C@H](c2ccc(F)cc2)N2CCCC2=O)cc1 (racemic) [Example 69],1.6
4,O=C1CCCN1[C@@H](c1ccccc1)[C@H](Oc1ccccn1)c1ccccc1 (racemic) [Example 70],2.3
5,CCCO[C@H](c1ccccc1)[C@H](c1ccccn1)N1CCCC1=O (racemic) [Example 71],1.6
6,O=C1CCCN1[C@@H](c1ccccc1)[C@H](OCc1ccccc1)c1ccc(Cl)cc1 (racemic) [Example 72],2.1
7,COc1ccc([C@@H](OCC2CC2)[C@H](c2ccc(F)cc2)N2CCCC2=O)cc1 (racemic) [Example 73],1
8,O=C1CCCN1[C@@H](c1ccc(F)cc1)[C@@H](OCC1CC1)c1cccc2cccnc12 (racemic) [Example 75],1.4
9,CCCO[C@H](c1ccccn1)[C@H](c1ccccc1)N1CCCC1=O (racemic) [Example 76],2.7
10,CO[C@H](c1ccc(F)cc1)[C@H](c1ccccc1)N1CCCC1=O (racemic) [Example 77],2.7
11,CO[C@H](C1CCCCC1)[C@H](c1ccc(F)cc1)N1CCCC1=O (racemic) [Example 78],3.3
12,CO[C@H](c1ccc(F)cc1)[C@H](c1ccc(F)cc1)N1CCCC1=O (racemic) [Example 79],3.4
13,O=C1CCCN1[C@@H](c1ccc(F)cc1)[C@H](OCC1CC1)c1ccc(C(F)(F)F)cc1 (racemic) [Example 80],1.4
14,COc1ccc(CO[C@H](c2ccc(F)c(F)c2)[C@H](c2cccnc2)N2CCCC2=O)cc1 (racemic) [Example 81],3.2
15,CO[C@@H](c1ccccc1)[C@H](c1ccccc1)N1CCCC1=O (racemic) [Example 82],3.7
16,O=C1CCCN1[C@@H](c1ccc(F)cc1)[C@H](OCC1CC1)C1CCCCC1 (racemic) [Example 83],1.8
17,O=C1CCCN1[C@@H](c1ccc(F)cc1)[C@@H](OCC1CC1)c1ccnc2ccccc12 (racemic) [Example 84],2.4
18,COc1ccc(CO[C@H](c2cccnc2)[C@H](c2ccc(F)cc2)N2CCCC2=O)cc1 (racemic) [Example 86],2.9
19,CO[C@H](c1ccc(F)c(F)c1)[C@H](c1ccc(F)cc1)N1CCCC1=O (racemic) [Example 87],4.2
20,CO[C@@H](c1ccc(F)cc1)[C@H](c1ccccc1)N1CCCC1=O (racemic) [Example 88],4
21,N#Cc1ccc(O[C@@H](c2cccc3ccccc23)[C@H](c2ccc(F)cc2)N2CCCC2=O)cc1 (racemic) [Example 89],3.5

row,SMILES,IC50 [µM]
1,CC1CCC(=O)N1[C@@H](c1ccc(F)cc1)[C@H](Oc1ccc(C#N)cc1)c1ccc(F)c(F)c1 (mixture of isomers) [Example 90],4.1
2,O=C1CCCN1[C@@H](c1ccccc1)[C@H](OCC1CC1)c1ccncc1 (racemic) [Example 91],4
3,N#Cc1ccc(O[C@H](c2ccc(F)cc2)[C@H](c2ccc(F)cc2)N2CCCC2=O)cc1 (racemic) [Example 92],3.8
4,O=C1CCCCN1[C@@H](c1ccc(F)cc1)[C@H](OCC1CC1)c1cccc2cccnc12 (racemic) [Example 93],4.1
5,COc1ccc(CO[C@H](c2ccc(F)cc2)[C@@H](c2ccc(F)cc2)N2CCCC2=O)cc1 (racemic) [Example 94],5.3
6,COc1ccc(CO[C@H](c2ccc(F)cc2)[C@@H](c2ccccc2)N2CCCC2=O)cc1 (racemic) [Example 95],5.2
7,N#Cc1ccc(O[C@H](c2ccccc2)[C@H](c2ccccn2)N2CCCC2=O)cc1 (racemic) [Example 96],5.1
8,CCCO[C@H](c1ccncc1)[C@H](c1ccccc1)N1CCCC1=O (racemic) [Example 97],5.4
9,COc1ccc(CO[C@H](c2ccc(F)cc2)[C@H](c2cccc3cccnc23)N2CCCC2=O)cc1 (racemic) [Example 98],5.5
10,CO[C@H](c1ccc(F)c(F)c1)[C@H](c1ccc(F)cc1)N1CCCCC1=O (racemic) [Example 99],6.3
11,O=C1CCCN1[C@@H](c1cccnc1)[C@H](OCc1ccc(Cl)cc1)c1ccc(F)c(F)c1 (racemic) [Example 100],5.4
12,O=C1CCCN1[C@@H](c1ccc(F)cc1)[C@H](OCc1ccc(Cl)cc1)c1ccc(F)c(F)c1 (racemic) [Example 101],5.6
13,N#Cc1ccc(O[C@H](c2ccc(F)c(F)c2)[C@@H](c2ccc(F)cc2)N2CCCC2=O)cc1 (racemic) [Example 102],5.4
14,O=C1CCCN1[C@@H](c1ccccn1)[C@H](OCCF)c1ccccc1 (racemic) [Example 104],6.7
15,N#Cc1ccc(O[C@H](c2cc(F)cc(F)c2)[C@H](c2ccc(F)cc2)N2CCCC2=O)cc1 (racemic) [Example 106],8.3
16,N#Cc1ccc(O[C@H](c2ccc(F)c(F)c2)[C@H](c2ccc(F)cc2)N2CCCCC2=O)cc1 (racemic) [Example 107],9.6
17,N#Cc1ccc(O[C@H](c2ccc(OC(F)(F)F)cc2)[C@H](c2ccc(F)cc2)N2CCCC2=O)cc1 (racemic) [Example 108],9
18,N#Cc1ccc(O[C@@H](c2ccnc3ccccc23)[C@H](c2ccc(F)cc2)N2CCCC2=O)cc1 (racemic) [Example 109],9.6
19,COc1ccc([C@@H](Oc2ccc(C(C)=O)cc2)[C@H](c2ccc(F)cc2)N2CCCC2=O)cc1 (racemic) [Example 110],9.7
20,N#Cc1ccc(O[C@H](c2ccc(F)c(F)c2)[C@H](c2ccc(F)cc2)N2CCCS2(=O)=O)cc1 (racemic) [Example 112],~10
21,O=C1CCCN1[C@@H](c1ccc(F)cc1)[C@H](Oc1ccccn1)c1ccc(F)c(F)c1 (racemic) [Example 114],~10

row,SMILES,IC50 [µM]
1,N#Cc1ccc(O[C@H](c2ccc(F)c(F)c2)[C@H](c2cccnc2)N2CCCC2=O)cc1 (racemic) [Example 115],~10
2,N#Cc1ccc(O[C@H](c2ccc(C(F)(F)F)cc2)[C@H](c2ccc(F)cc2)N2CCCC2=O)cc1 (racemic) [Example 116],~10
3,O=C1CCCN1[C@@H](c1ccc(F)cc1)[C@H](OCC1CC1)c1ccc(F)cc1 (racemic) [Example 117],0.3
4,O=C1CCCCN1[C@@H](c1ccc(F)cc1)[C@H](OCCCC(F)(F)F)c1cccnc1 (racemic) [Example 118],0.8
5,O=C1CCCN1[C@@H](c1cccc2cccnc12)[C@H](OCC1CC1)c1cccnc1 (racemic) [Example 119],0.8
6,"CCCO[C@H](c1ccccc1)[C@H](c1ccccc1)N1CCCS1(=O)=O [Example 7, (1S,2R)-2-(1,2-Diphenyl-2-propoxyethyl)isothiazolidine-1,1-dioxide]",0.6
7,"CC(OCC1CC1)(c1ccccc1)C(c1ccccc1)N1CCCC1=O (stereo not shown) [Example 8, 1-(2-Cyclopropylmethoxy-1,2-diphenylpropyl)pyrrolidin-2-one]",1.2
8,CCCO[C@H](c1ccccc1)[C@H](c1ccccc1)N1CCCC1=O [Example 15],0.16
9,CCCO[C@@H](c1ccccc1)[C@@H](c1ccccc1)N1CCCC1=O [Example 18],0.4
10,CCCOC(c1ccc(OC)cc1)C(c1ccccc1)N1CCCC1=O (stereo not shown) [Example 23],0.65
11,O=S1(=O)CCCN1[C@H](c1ccccc1)[C@@H](OCC1CC1)c1ccccc1 [Example 52],2
12,CCCO[C@@H](c1ccccc1)[C@@H](c1ccccc1)N1CCCS1(=O)=O [Example 54],1.7
13,O=C1CCCCN1[C@H](c1ccccc1)[C@@H](OCC1CC1)c1ccccc1 [Example 74],1.4
14,CO[C@H](c1ccccc1)[C@H](c1ccccc1)N1CCCC1=O [Example 85],3.6
15,COc1ccc(CO[C@@H](c2ccccc2)[C@@H](c2ccccc2)N2CCCCC2=O)cc1 [Example 103],6.6
16,N#Cc1ccc(OC(c2ccnc3ccccc23)C(c2ccc(F)cc2)N2CCCC2=O)cc1 (stereo not shown) [Example 105],4.6
17,O=C1CCCN1C(c1ccc(F)cc1)C(OCCCC(F)(F)F)c1cccc2cccnc12 (stereo not shown) [Example 111],8.8
18,N#Cc1ccc(OC(c2ccc(C#N)cc2)C(c2ccc(F)cc2)N2CCCC2=O)cc1 (stereo not shown) [Example 113],~10
19,"C=CO[C@H](c1ccccc1)[C@H](c1ccccc1)N1CCCC1=O [Example 120, 1 S,2R-1-(1,2-Diphenyl-2-vinyloxyethyl)pyrrolidin-2-one]",0.8
20,C=CO[C@H](c1ccc(F)c(F)c1)[C@H](c1ccc(F)cc1)N1CCCC1=O [Example 121],0.9
